Among the data in article PMC6792352, “Limited Chemical Structural Diversity Found to Modulate Thyroid Hormone Receptor in the Tox21 Chemical Library” (Environmental Health Perspectives, 2019) are CC50 values, retold here.

This data set can be described thus: in vitro. Particulars: rat, gh3-tre-luc cells.

Where a name gives a salt, the structure may show the parent alone.

The compound `O=C(c1ccc2c(c1)C(=O)OC2=O)c1ccc2c(c1)C(=O)OC2=O` [Benzophenonetetracarboxylic dianhydride] showed a CC50 at 24 h (AC50 (uM) modified / 1000) greater than 90 µM. Same read-out and setting: next, `C=C[C@](C)(O)CC[C@@H]1[C@@]2(C)CCCC(C)(C)[C@@H]2CC[C@@]1(C)O` [Sclareol]: 29.3 µM. With `CCC1(CC)C(=O)C=CNC1=O` [Pyrithyldione], under “AC50 (uM) modified / 1000, Tox21_110001=Tox21_110368, viability, 1 nM T3 present, 24 h”, the CC50 at 24 h is greater than 50 µM. `O=c1cc[nH]c(=S)[nH]1` [Thiouracil]: the CC50 at 24 h (AC50 (uM) modified / 1000) was greater than 90 µM. On the same count and under the same terms, next, `CO[C@H]1/C=C/O[C@@]2(C)Oc3c(C)c(O)c4c(O)c(c(/C=N/N5CCN(C6CCCC6)CC5)c(O)c4c3C2=O)NC(=O)/C(C)=C\C=C\[C@H](C)[C@H](O)[C@@H](C)[C@@H](O)[C@@H](C)[C@H](OC(C)=O)[C@@H]1C` [Rifapentine]: 22.8 µM.

Take `OC[C@@H](O)[C@H]1O[C@@H]2O[C@H](C(Cl)(Cl)Cl)O[C@@H]2[C@H]1O` [Chloralose]: the CC50 at 24 h runs as follows: (AC50 (uM) modified / 1000, Tox21_110001=Tox21_111708, viability, 1 nM T3 present, 24 h) greater than 50 µM; (AC50 (uM) modified / 1000, Tox21_110001=Tox21_201447, viability, 1 nM T3 present, 24 h) greater than 90 µM. Compound `COc1ccc(COC(C)=O)cc1` [4-Methoxybenzyl acetate] registered a CC50 at 24 h (AC50 (uM) modified / 1000) greater than 80 µM. The compound `COc1cc(OC)nc(Oc2cccc(Oc3nc(OC)cc(OC)n3)c2C(=O)O)n1` [Bispyribac-sodium] yielded a CC50 at 24 h (AC50 (uM) modified / 1000) greater than 90 µM. The compound `CN1[C@@H]2CCC[C@H]1C[C@@H](NC(=O)c1nn(C)c3ccccc13)C2` [Granisetron hydrochloride] came in with a CC50 at 24 h (AC50 (uM) modified / 1000) greater than 50 µM. On to `N[C@H]1C(O)O[C@H](CO)[C@@H](O)[C@@H]1O` (some centres unmarked) [Glucosamine hydrochloride], for which, for the setting “AC50 (uM) modified / 1000”, the CC50 at 24 h is greater than 50 µM. Still for that read-out and setting: next, `CCC(C)C1N=C(C)C(C)S1` (centres unmarked) [2-(2-Butyl)-4,5-dimethyl-3-thiazoline]: greater than 90 µM. Same read-out and setting: next, `COc1ccccc1Oc1c(NS(=O)(=O)c2ccc(C(C)(C)C)cc2)nc(-c2ncccn2)nc1OCCO` [Bosentan]: greater than 50 µM. Same read-out and setting: next, `CCCCCC=CCC(=O)OC` [Methyl 3-nonenoate]: greater than 90 µM.

`C=C(C)C(=O)OC` [Methyl methacrylate] had a CC50 at 24 h (AC50 (uM) modified / 1000) greater than 90 µM. Where the note is “AC50 (uM) modified / 1000”, `C[C@@H]1C[C@H]2[C@@H]3CCC4=CC(=O)C=C[C@]4(C)[C@@]3(F)[C@@H](O)C[C@]2(C)[C@@]1(O)C(=O)COC(=O)c1cccc(S(=O)(=O)O)c1` [Dexamethazone metasulfobenzoate sodium] gave a CC50 at 24 h greater than 50 µM. For `CN[C@@H]1[C@@H](O[C@H]2O[C@H](CO)[C@@H](N)[C@H](O)[C@H]2O)O[C@H]2C[C@@H](N)[C@@H](O[C@H]3[C@H](O)[C@@H](O)[C@H](N)C[C@@H]3N)O[C@@H]2[C@@H]1O` [Apramycin], under “AC50 (uM) modified / 1000”, the CC50 at 24 h is greater than 20 µM. On the same count and under the same terms, next, `CCN(Cc1ccc(Cl)nc1)/C(=C/[N+](=O)[O-])NC` [(E)-Nitenpyram]: greater than 50 µM; `C[C@H]1C[C@H]2[C@@H]3CCC4=CC(=O)C=C[C@]4(C)[C@@]3(Cl)[C@@H](O)C[C@]2(C)[C@@]1(O)C(=O)CO` [Beclomethasone]: greater than 50 µM; `CC(=O)OCC(=O)[C@@]1(O)CC[C@H]2[C@@H]3CCC4=CC(=O)CC[C@]4(C)[C@H]3C(=O)C[C@@]21C` [Cortisone acetate]: greater than 50 µM. Where the note is “AC50 (uM) modified / 1000”, `CNC(=O)[C@H]1O[C@@H](n2cnc3c(NCc4cc(Cl)ccc4OCc4cc(C)no4)ncnc32)[C@H](O)[C@@H]1N` [CP-608039] displayed a CC50 at 24 h greater than 90 µM.

Take `C=CCC1(C(C)CCC)C(=O)N=C(S)NC1=O` (centres unmarked) [Thiamylal sodium]: the CC50 at 24 h (AC50 (uM) modified / 1000, Tox21_110001=Tox21_111517, viability, 1 nM T3 present, 24 h) was greater than 50 µM. For the setting “AC50 (uM) modified / 1000”, `NC[C@@H]1O[C@H](O[C@H]2[C@@H](O)[C@H](O[C@@H]3[C@@H](O)[C@H](N)C[C@H](N)[C@H]3O[C@H]3O[C@H](CO)[C@@H](O)[C@H](O)[C@H]3N)O[C@@H]2CO)[C@H](N)[C@@H](O)[C@@H]1O` [Paromomycin sulfate] gave a CC50 at 24 h greater than 50 µM. Same read-out and setting: next, `OCCN1CCN(CC/C=C2/c3ccccc3Sc3ccc(Cl)cc32)CC1` [Zuclopenthixol dihydrochloride]: 8.55 µM; `N#Cc1cc(I)c(O)c(I)c1` [Ioxynil]: 49.1 µM; `CCC(=O)CC` [3-Pentanone]: greater than 90 µM. The same measure, in the same setting: next, `CCNc1nc(Cl)nc(NC(C)C)n1` [Atrazine]: greater than 90 µM; `CCN(CC)C(=O)N[C@H]1C[C@@H]2c3cccc4[nH]cc(c34)C[C@H]2N(C)C1` [Terguride]: greater than 50 µM. For the setting “AC50 (uM) modified / 1000”, `C=CCN1C(=O)C(CC(C)C)NC1=S` (centres unmarked) [Albutoin] registered a CC50 at 24 h greater than 50 µM. On the same count and under the same terms, next, `CC(C)=CCOC(=O)c1ccccc1` [3-Methyl-2-butenyl benzoate]: greater than 90 µM; `COc1cc(C(=O)N2CCCCCCC2)cc(OC)c1OC` [Trocimine]: greater than 50 µM; `NC[C@H]1CC[C@H](C(=O)O)CC1` [Tranexamic acid]: greater than 20 µM. On the same count and under the same terms, next, `Cc1ccc(OP(=O)(Oc2ccc(C)cc2C)Oc2ccc(C)cc2C)c(C)c1` [TXP]: greater than 100 µM; `c1ccc(C2CC2)c(OCC2=NCCN2)c1` [Cirazoline]: greater than 50 µM. `C=CC(=O)OCCC#N` [2-Cyanoethyl prop-2-enoate] came in with a CC50 at 24 h (AC50 (uM) modified / 1000) greater than 90 µM. For `CCCCCc1cc(O)cc(O)c1` [Olivetol], the CC50 at 24 h reads like this: (AC50 (uM) modified / 1000, Tox21_110001=Tox21_202349, viability, 1 nM T3 present, 24 h) 78.4 µM; (AC50 (uM) modified / 1000, Tox21_110001=Tox21_303332, viability, 1 nM T3 present, 24 h) 75.4 µM. For `O=C1CCCN1` [2-Pyrrolidinone], the CC50 at 24 h (AC50 (uM) modified / 1000) is greater than 90 µM. `Cc1cn([C@H]2C[C@H](O)[C@@H](CO)O2)c(=O)[nH]c1=O` [Thymidine] yielded a CC50 at 24 h (AC50 (uM) modified / 1000) greater than 50 µM. Still for that read-out and setting: next, `N=C(N)N/N=C/c1c(Cl)cccc1Cl` [Guanabenz]: 20.8 µM; `c1ccc2c(c1)ccc1c3ccccc3ccc21` [Chrysene]: greater than 40 µM.

Under “AC50 (uM) modified / 1000, Tox21_110001=Tox21_302025, viability, 1 nM T3 present, 24 h”, `CCC(=O)c1ccccc1` [1-Phenylpropan-1-one] gave a CC50 at 24 h greater than 90 µM. Under “AC50 (uM) modified / 1000”, `c1ccc2sc(SSc3nc4ccccc4s3)nc2c1` [2,2'-Dithiobisbenzothiazole] gave a 50% cytotoxic concentration (CC50) at 24 h greater than 50 µM.

Take `CCCCOC(=O)C(C)OC(=O)CCC` (centres unmarked) [1-Butoxy-1-oxopropan-2-yl butanoate]: the CC50 at 24 h (AC50 (uM) modified / 1000) is greater than 90 µM. On to `CSc1ccc(Cl)cc1` [4-Chlorophenyl methyl sulfide], for which, for the setting “AC50 (uM) modified / 1000”, the CC50 at 24 h was greater than 90 µM. Still for that read-out and setting: next, `CC(=O)O[C@H]1C[C@H](O[C@H]2[C@@H](O)C[C@H](O[C@H]3[C@@H](O)C[C@H](O[C@H]4CC[C@@]5(C)[C@H](CC[C@@H]6[C@@H]5CC[C@]5(C)[C@@H](C7=CC(=O)OC7)CC[C@]65O)C4)O[C@@H]3C)O[C@@H]2C)O[C@H](C)[C@H]1O[C@@H]1O[C@H](CO)[C@@H](O)[C@H](O)[C@H]1O` [Lanatoside A]: greater than 50 µM. Still for that read-out and setting: next, `CC1(C)C(=O)N(Br)C(=O)N1Br` [1,3-Dibromo-5,5-dimethylhydantoin]: greater than 90 µM; `CC(C)CCCCCCCOC(=O)c1ccc(C(=O)OCCCCCCCC(C)C)c(C(=O)OCCCCCCCC(C)C)c1` [Triisodecyl trimellitate]: greater than 80 µM.

On to `N#CCNCC#N` [Iminodiacetonitrile], for which the CC50 at 24 h (AC50 (uM) modified / 1000, Tox21_110001=Tox21_301075, viability, 1 nM T3 present, 24 h) is greater than 90 µM.

In turn, `O=C1CCCc2c1cc1ccc3cccc4ccc2c1c34` [9,10-Dihydrobenzo[a]pyren-7(8H)-one] came in with a CC50 at 24 h (AC50 (uM) modified / 1000) greater than 90 µM.

For the compound `CCCCOc1cc(C(=O)NCCN(CC)CC)c2ccccc2n1` [Dibucaine], the CC50 at 24 h (AC50 (uM) modified / 1000) was determined as 9.45 µM. `CN1CCN(C2=Nc3cc(Cl)ccc3Nc3ccccc32)CC1` [Clozapine] returned a CC50 at 24 h (AC50 (uM) modified / 1000) of 15.9 µM. Still for that read-out and setting: next, `COC(OC)OC` [Trimethoxymethane]: greater than 90 µM. The compound `CC(C)(C)OC(=O)c1ccc(O)cc1` [tert-Butyl 4-hydroxybenzoate] displayed a CC50 at 24 h (AC50 (uM) modified / 1000) greater than 90 µM. The same measure, in the same setting: next, `O=C(O)COc1ccccc1/C=N/NC(=O)c1ccncc1` [Aconiazide]: greater than 50 µM; `C=CCCCC` [1-Hexene]: greater than 100 µM. In the case of `C#C[C@]1(O)CC[C@H]2[C@@H]3CCC4=CC(=O)CCC4=C3C=C[C@@]21CC` [Gestrinone], under “AC50 (uM) modified / 1000”, the CC50 at 24 h was greater than 50 µM. Still for that read-out and setting: next, `O=C(O)COc1ccc(C(=O)c2cccs2)c(Cl)c1Cl` [Ticrynafen]: greater than 50 µM; `COc1cc2nc(O)nc(O)c2cc1OC` [6,7-Dimethoxyquinazoline-2,4(1H,3H)-dione]: greater than 20 µM. On the same count and under the same terms, next, `CC(C)(C)c1ccccc1O` [2-tert-Butylphenol]: greater than 90 µM; `CCCCOC(C)=O` [Butyl acetate]: greater than 90 µM. `O=S(=O)(O)c1ccccc1` [Benzenesulfonic acid] registered a CC50 at 24 h (AC50 (uM) modified / 1000) greater than 90 µM.

`C[C@H](O)C(=O)Nc1c(I)c(C(=O)NC(CO)CO)c(I)c(C(=O)NC(CO)CO)c1I` [Iopamidol] had a CC50 at 24 h (AC50 (uM) modified / 1000) greater than 20 µM.

The compound `CC(=O)CCc1ccc2c(c1)OCO2` [Piperonyl acetone] yielded a CC50 at 24 h (AC50 (uM) modified / 1000, Tox21_110001=Tox21_302658, viability, 1 nM T3 present, 24 h) greater than 90 µM.

Regarding `CC(C)NC(=O)N1CC(=O)N(c2cc(Cl)cc(Cl)c2)C1=O` [Iprodione], the CC50 at 24 h (AC50 (uM) modified / 1000) was greater than 90 µM. On to `CN(C)C(=O)Nc1cccc(OC(=O)NC(C)(C)C)c1` [Karbutilate], for which the CC50 at 24 h (AC50 (uM) modified / 1000, Tox21_110001=Tox21_301748, viability, 1 nM T3 present, 24 h) was greater than 90 µM. Take `CCC(COC(=O)c1cc(OC)c(OC)c(OC)c1)(c1ccccc1)N(C)C` (centres unmarked) [Trimebutine maleate]: the CC50 at 24 h (AC50 (uM) modified / 1000) was greater than 50 µM. For the compound `OCCOCCN1CCN(C2=Nc3ccccc3Sc3ccccc32)CC1` [Quetiapine], the CC50 at 24 h (AC50 (uM) modified / 1000) was greater than 50 µM.

What is called CC50 is the concentration giving 50% cytotoxicity. A higher CC50 goes with lower toxicity to the cells.
